Measured values reported in patent US6423688B1, “Dipeptide and related compounds which inhibit leukocyte adhesion mediated by VLA-4” (Athena Neurosciences, Inc., priority 1997, dated 2002).
Peptide text beside a SMILES is read from it. * marks the point of attachment. Tos = Cc1ccc(S(=O)(=O)*)cc1

SMILES	melting point [°C]
Cc1ccc(S(=O)(=O)N2CCC[C@H]2C(=O)N[C@@H](CCC(N)=O)C(=O)O)cc1 [Example 5, N-(Toluene-4-sulfonyl)-L-prolyl-L-glutamine] (Tos-Pro-Gln-OH)	45 to 55
Cc1ccc(S(=O)(=O)N2CCC[C@H]2C(=O)N[C@@H](CC(N)=O)C(=O)O)cc1 [Example 2, N-(Toluene-4-sulfonyl)-L-prolyl-L-asparagine] (Tos-Pro-Asn-OH)	178 to 180
